In patent publication US6566359B1, “2,4,6-trimethyl-1,4-dihydro-pyridine-3,5-dicarboxylic acid esters as neuroprotective drugs” (Board of Supervisors of Louisiana State University and …, priority 2002, dated 2003):
Counter-ions that a name gives are not always drawn.

Experiments:
[1] = test system: c-jun aminoterminal protein kinase (JNK); assay: PAF-mediated JNK activation in HEK-293 cells, immunocomplex kinase assay; format: cell-based, human; settings: PAF 100 nM
Description: Experimental Protocol: HEK-293 cells (transformed primary human embryo kidney cells, ATCC# CRL-1573) were cultured to confluency in DMEM-10% FBS high-glucose medium (GIBCO-BRL, Rockville, Md). Cells were cultured in 6-well plates and were treated with PAF (100 nM) for 60 min or interleukin-1β (“IL-1β”; 10 ng/ml) for 30 min, and then frozen for later assays for JNK and ERK as described below. To test the effect of compounds of the LAU-0900 series, HEK-293 cells were treated for 30 min with various concentrations (from 10 nM to 1 μM) of the experimental LAU-0900 series compound before the addition of PAF or IL-1β. […]
To measure the JNK activity, aliquots of 5 μg immunoprecipitates were incubated for 30 min at 30° C. using 10 μg GST-cJUN (Santa Cruz Biotechnology, Santa Cruz, Calif.) as substrate. […] The filter papers were washed twice with 10 mL per square 1% phosphoric acid, followed by one wash with water. ^32P on the filter paper was counted in a scintillation counter to quantify the phosphorylation of substrate proteins.

[2] = Middle cerebral artery occlusion (MCA-O) stroke model, infarct volume by TTC; format: in vivo, C57BL/6 mice
human COX-2 promoter [3] = assay: PAF-induced COX-2 promoter-luciferase transcription in CV-1 cells; format: cell-based; settings: 100 nM compound, 100 nM PAF
Description: (§1) To test the ability of LAU-0900 series compounds to inhibit COX-2 expression, a kidney cell line was transiently transfected with the 830-base-pair human COX-2 promoter construct (proximal to the transcription start site) fused to the luciferase gene as a reporter as described below.
(§2) Transfection of CV-1 cells with human COX-2promoterfused with LUC: C V-1 Cells (African green monkey kidney cell line, ATCC # CCL-17) were grown in DMEM-F12 (GIBCO-BRL, Rockville, Md.) supplemented with 10% FBS (fetal bovine serum) in 6-well plates. At 80% confluence, the cells were transfected with 10 μg human COX-2 promoter-LUC construct (containing 830 base pairs of the human COX-2 promoter (donated by Dr. Stephen Prescot, Huntsman Cancer Institute, Salt Lake City, Utah) using a liposomal transfection reagent (DOTAP, Roche Diagnostics, Gmbh, Mannheim, Germany). Promoterless β-galactosidase construct (Promega, Madison, Wis.) was co-transfected to assess transfection efficiency. Three hours after transfection at 37° C., the medium was removed, and the cells were washed with phonsphate-buffered saline solution, pH 7.2 (PBS; Gibco-BRL, Rockville Md. The plates were further incubated at 37° C. in complete medium DMEM-F12 with 10% FBS for about 8-10 hr. Before the addition of the inducers of COX-2, PAF (100 nM) or IL-1β (10 ng/ml), the CV-1-transfected cells were serum-starved for 8 hr at 37° C. After the addition of the inducers, the cells were incubated for 8-10 hr at 37° C. Then the medium was removed, the cells were washed with PBS, harvested, and frozen at −80° C. until used for assays.
(§3) To test the effectiveness of the LAU-0900 series compounds, the transfected cells were treated for 1 hr with 100 nM of various LAU-0900 series compounds before the addition of the inducers (either PAF or IL-1β, and the LAU-0900 compound remained in the medium throughout the incubation period.
(§4) Luciferase assay of transfected CV-1 cells: Frozen cells were homogenized in 300 μl luciferase assay buffer (“ALL”, Analytical Luminescence Laboratory, San Diego, Calif.), and cellular debris was collected as a pellet by centrifugation at 2800×g for 20 min at 4° C. Supernatants (20-30 μl) were normalized to 1 μg/ml of total protein content, and were mixed with 70-80 μl ALL buffer. Reactions were initiated by injection of 100 μl of 1 mM luciferin (Sigma Chemical Co., St. Louis, Mo.). The relative light units were determined by using an ALL luminometer that recorded over 20-second intervals.

human COX-2 promoter [4] = assay: IL-1β-induced COX-2 promoter-luciferase transcription in CV-1 cells; format: cell-based; settings: 100 nM compound, 10 nM IL-1β
Description: as §1, §2, §3, §4

ARPE-19 cells = assay: Oxidative stress-induced cell death (TNF + H2O2), Hoechst staining; format: cell-based, human; settings: TNF 10 ng/ml + H2O2 1.6 μM
Description: To test the effectiveness of the LAU-0900 series compounds as inhibitors of oxidative stress-induced cell death, human retinal pigment epithelial cells in culture (ARPE-19 cells, ATCC #CRL-2302) were used. ARPE-19 cells were cultured to confluence in DMEM-10% FBS medium (Gibco-BRL). The cells were then divided into 11 groups. Nine groups were exposed overnight to […] of a test compound selected from LAU-0901, LAU-0903, LAU-0904, LAU-0905, LAU-0906, LAU-0907, LAU-0908, LAU-0909, and LAU-0910. The other two groups were control groups, and were not exposed to any test chemical. In the nine groups and in one control group, oxidative stress was triggered by the addition of a combination of tumor necrosis factor (“TNF”; 10 ng/ml) and hydrogen peroxide (“H2O2”; 1.6 μM). The second control group was not treated with TNF and H2O2.
The amount of Hoeschst staining was least in the group treated with LAU-0901, and most in the group treated with LAU-0910.

[5] = target: T1, cell-surface-type PAF receptor over-expressed in CHO-B cells (Cavia porcellus, UniProt P21556); assay: Competition for 3H-PAF binding to CHO-B cell homogenates; settings: CHO-B homogenates
T1 construct: expressed in transfected cells; host or cells: Chinese hamster ovary cells: CHO-B (high expression) and CHO-A (mild expression), used as cell homogenates
Description: (§5) Binding studies were performed on subcellular fractions of tissues obtained from rat brain cortex, according to procedures described in V. Marcheselli et al., “Distinct platelet-activating factor binding sites in synaptic endings and in intracellular membranes of rat cerebral cortex,” J. biol. Chem., vol. 265, pp. 9140-9145 (1990). Freshly dissected brain tissues were homogenized in ice-cold buffer (50 mM Tris-HCl, 2 mM EGTA, 5 mM PMSF, 250 mM sucrose, 7.4 pH). Subcellular fractions were obtained by differential centrifugation. The microsomal fraction was sedimented after 100,000×g for 1 hour centrifugation. In addition, three cell lines from Chinese hamster ovary (CHO) with varying expression of PAF receptors, CHO-A, CHO-B, and CHO-C cells (from Dr. Takao Shiizu, University of Tokyo, Tokyo, Japan) were cultured to the fourth-passage cells. These cells were cultured to confluence, then detached from their culturing flasks, and pelleted by rapid centrifugation (3,000 rpm, 10 min). Cellular pellets were homogenized in ice-cold buffer as described above. Freshly obtained microsomal fractions or CHO cellular homogenates were utilized for saturation, displacement, and competition studies using ^3H-PAF as the hot ligand, unlabeled-PAF to detect non-specific binding, and a LAU-0900 series compound to displace by competition ^3H-PAF bound to a receptor.
(§6) See B. Liu et al., “Implication of protein kinase C alpha in PAF-stimulated phospholipase D Activation in Chinese hamster ovary (CHO) cells expressing PAF receptor,” Biochem. Biophys. Res. Commun., vol.214, pp.418-423 (1995). […] Both the constants of inhibition (KI) and 50% of inhibitory activity (IC50) were significant at a low concentration of LAU-0903.

[6] = test system: CHO-C cells (do not exp PAF-R); assay: Competition for 3H-PAF binding to CHO-C cell homogenates; settings: CHO-C homogenates
Description: as §5, §6

[7] = target: intracellular type PAF receptor (rat brain microsomal preparations) (Rattus norvegicus, UniProt P46002); assay: Competition for 3H-PAF binding to rat brain cortex microsomal membranes; settings: rat brain microsomal
Description: as §5

[8] = known LD50; cited from earlier work
[9] = 30 mg/kg 1 hr after reperfusion following 1 hr of MCA-O

intracellular type PAF receptor (rat brain microsomal preparations), sequence (P46002 whole entry): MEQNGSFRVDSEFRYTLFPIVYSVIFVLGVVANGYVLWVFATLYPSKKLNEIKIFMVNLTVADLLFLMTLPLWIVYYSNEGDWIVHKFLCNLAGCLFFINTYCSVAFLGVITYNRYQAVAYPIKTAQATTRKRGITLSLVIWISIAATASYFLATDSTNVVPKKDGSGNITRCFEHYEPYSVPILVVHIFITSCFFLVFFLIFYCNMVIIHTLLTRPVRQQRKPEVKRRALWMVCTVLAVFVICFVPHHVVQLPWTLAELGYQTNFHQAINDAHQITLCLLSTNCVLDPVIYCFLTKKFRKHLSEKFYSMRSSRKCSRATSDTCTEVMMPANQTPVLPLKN
T1 sequence (P21556 whole entry): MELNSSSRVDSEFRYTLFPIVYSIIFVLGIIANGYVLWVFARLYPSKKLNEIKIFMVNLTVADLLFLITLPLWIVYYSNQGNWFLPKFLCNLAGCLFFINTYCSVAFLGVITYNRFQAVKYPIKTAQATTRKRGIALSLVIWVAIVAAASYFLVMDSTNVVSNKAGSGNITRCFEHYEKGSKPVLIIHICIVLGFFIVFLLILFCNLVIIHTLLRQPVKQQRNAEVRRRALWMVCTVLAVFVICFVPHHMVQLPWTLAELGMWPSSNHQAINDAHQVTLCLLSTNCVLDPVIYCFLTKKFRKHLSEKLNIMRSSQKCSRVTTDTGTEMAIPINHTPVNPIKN

CC1=C(C(=O)OCCOc2ccc(Cl)c(Cl)c2)C(C)C(C(=O)OC(CN2CCOCC2)CN2CCOCC2)=C(C)N1 (centres unmarked) [LAU-0901, 2,4,6-Trimethyl-1,4-dihydro-pyridine-3,5-dicarboxylic acid 5-[2-(3,4-dichlorophenoxy)]ethyl ester 3-[1,3-di-(4-morpholinyl)-2-propyl-1-esterdihydrochloride]
Lowest concentration inhibiting PAF-induced JNK [1]: ≤ 10 nM
Reduction of infarcted volume [2, 9]: 40%
Reduction of infarcted volume ([2]; 30 mg/kg at the onset of MCA-O, 1 hr MCA-O, killed 24 hr later): 40%
Reduction of infarcted volume ([2]; 30 mg/kg intraperitoneally 1 h before MCA-O, 1 hr MCA-O, killed 24 hr after): 55%

COC(=O)C1=C(C)NC(C)=C(C(=O)OCCCSc2ccc(F)cc2)C1C (centres unmarked) [LAU-0904, 2,4,6-Trimethyl-1,4-dihydro-pyridine-3,5-dicarboxylic acid 5-[3-(4-fluorophenysulfanyl)]-propyl-1-ester 3-methyl ester]
Reduction of infarcted volume [2, 9]: 40%

CCCOc1ccc(SCCCOC(=O)C2=C(C)NC(C)=C(C(=O)OC)C2C)cc1 (centres unmarked) [LAU-0907, 2,4,6-Trimethyl-1,4-dihydro-pyridine-3,5-dicarboxylic acid 5-[3-(4-propoxyphenylsulfanyl)]-propyl-1-ester 3-methyl ester]
Inhibition of COX-2 transcription induced by PAF (human COX-2 promoter [3]): inhibited
Inhibition of COX-2 transcription induced by IL-1β (human COX-2 promoter [4]): inhibited

COC(=O)C1=C(C)NC(C)=C(C(=O)OCCCOc2ccc(/C=C/C(C)=O)cc2)C1C (centres unmarked) [LAU-0908]
Inhibition of COX-2 transcription induced by PAF (human COX-2 promoter [3]): inhibited
Inhibition of COX-2 transcription induced by IL-1β (human COX-2 promoter [4]): inhibited

CCCCOc1ccc(OCCCOC(=O)C2=C(C)NC(C)=C(C(=O)OC)C2C)cc1 (centres unmarked) [LAU-0910, 2,4,6-Trimethyl-1,4-dihydropyridine-3,5-dicarboxylic acid 3-[3-(4-butoxyphenoxy)propyl]ester 5-methyl ester]
Amount of Hoechst staining (cytoprotection) (ARPE-19 cells): most

CCCC(=O)c1ccc(OCCCOC(=O)C2=C(C)NC(C)=C(C(=O)OC)C2C)cc1 (centres unmarked) [LAU-0913, 2,4,6-Trimethyl-1,4-dihydro-pyridine-3,5-dicarboxylic acid 5-[3-(4-butyryl-phenoxy)-propyl]1-ester 3-methyl ester]
Inhibition of COX-2 transcription induced by PAF (human COX-2 promoter [3]): inhibited
Inhibition of COX-2 transcription induced by IL-1β (human COX-2 promoter [4]): inhibited

CCCCCCCCCCCCCCCCOC[C@H](COP(=O)([O-])OCC[N+](C)(C)C)OC(C)=O [^3H-PAF, ^3H-platelet-activating factor, reference compound]
Kd [5]: 0.15 nM
Kd 3H-PAF [6]: No binding
Kd ([7]; high-affinity binding site (H)): 0.00205 nM
Kd ([7]; low-affinity binding site (L)): 30 nM

CC(=O)Nc1ccc(O)cc1 [acetaminophen]
LD50 [8]: 560 mg/kg
